According to the kinase profiling compilation of Christmann-Franck et al. (2016):
pIC50: −log10 of the molar value.

Key:
[1] = target: CSF1R (human) (UniProt P07333); test: radiometric filter-binding kinase assay
[2] = target: TEK (human) (UniProt Q02763); test: radiometric filter-binding kinase assay
[3] = target: KDR (human) (UniProt P35968); test: radiometric filter-binding kinase assay
[4] = target: PDPK1 (human) (UniProt O15530); test: radiometric filter-binding kinase assay
[5] = target: PRKDC (human) (UniProt P78527); test: radiometric filter-binding kinase assay
[6] = target: AXL (human) (UniProt P30530); test: radiometric filter-binding kinase assay
[7] = target: MET (human) (UniProt P08581); test: radiometric filter-binding kinase assay
[8] = target: RIOK1 (human) (UniProt Q9BRS2); test: KINOMEscan competition binding; conditions: compound 1.0 µM
[9] = target: MARK2 (human) (UniProt Q7KZI7); test: KINOMEscan competition binding; conditions: compound 1.0 µM
[10] = target: MAP2K4 (human) (UniProt P45985); test: KINOMEscan competition binding; conditions: compound 1.0 µM
[11] = target: RPS6KA5 KD1 (human) (UniProt O75582); test: KINOMEscan competition binding; conditions: compound 1.0 µM
[12] = target: TIE1 (human) (UniProt P35590); test: KINOMEscan competition binding; conditions: compound 1.0 µM
[13] = tested on: ABL1 (human), P00519 [M351T]; test: KINOMEscan competition binding; conditions: compound 1.0 µM
[14] = target: MST4 (human) (UniProt Q9P289); test: KINOMEscan competition binding; conditions: compound 1.0 µM
[15] = target: PIP4K2B (human) (UniProt P78356); test: KINOMEscan competition binding; conditions: compound 1.0 µM
[16] = target: SRPK3 (human) (UniProt Q9UPE1); test: KINOMEscan competition binding; conditions: compound 1.0 µM
[17] = target: CDK16 (human) (UniProt Q00536); test: KINOMEscan competition binding; conditions: compound 1.0 µM
[18] = target: TEC (human) (UniProt P42680); test: KINOMEscan competition binding; conditions: compound 1.0 µM
[19] = target: MERTK (human) (UniProt Q12866); test: KINOMEscan competition binding; conditions: compound 1.0 µM
[20] = target: LIMK2 (human) (UniProt P53671); test: KINOMEscan competition binding; conditions: compound 1.0 µM
[21] = target: CSNK1A1L (human) (UniProt Q8N752); test: KINOMEscan competition binding; conditions: compound 1.0 µM
[22] = target: DCLK1 (human) (UniProt O15075); test: KINOMEscan competition binding; conditions: compound 1.0 µM
[23] = target: DDR2 (human) (UniProt Q16832); test: KINOMEscan competition binding; conditions: compound 1.0 µM
[24] = target: MAPK15 (human) (UniProt Q8TD08); test: KINOMEscan competition binding; conditions: compound 1.0 µM
[25] = target: HIPK2 (human) (UniProt Q9H2X6); test: KINOMEscan competition binding; conditions: compound 1.0 µM
[26] = target: YES1 (human) (UniProt P07947); test: KINOMEscan competition binding; conditions: compound 1.0 µM
[27] = target: MAPK6 (human) (UniProt Q16659); test: KINOMEscan competition binding; conditions: compound 1.0 µM
[28] = target: PIM2 (human) (UniProt Q9P1W9); test: KINOMEscan competition binding; conditions: compound 1.0 µM
[29] = target: MYLK (human) (UniProt Q15746); test: KINOMEscan competition binding; conditions: compound 1.0 µM
[30] = target: ANKK1 (human) (UniProt Q8NFD2); test: KINOMEscan competition binding; conditions: compound 1.0 µM
[31] = target: TAOK2 (human) (UniProt Q9UL54); test: SelectScreen, TR FRET; conditions: compound 5.0 µM
[32] = target: FGFR3 (human) (UniProt P22607); test: SelectScreen, TR FRET; conditions: compound 5.0 µM
[33] = tested on: PDGFRA (human), P16234 [T674I]; test: SelectScreen, TR FRET; conditions: compound 5.0 µM
[34] = target: PDGFRB (human) (UniProt P09619); test: SelectScreen, TR FRET; conditions: compound 5.0 µM
[35] = target: NTRK2 (human) (UniProt Q16620); test: SelectScreen, TR FRET; conditions: compound 5.0 µM
[36] = target: MAP4K5 (human) (UniProt Q9Y4K4); test: SelectScreen, TR FRET; conditions: compound 5.0 µM
[37] = target: PIM1 (human) (UniProt P11309); test: SelectScreen, TR FRET; conditions: compound 5.0 µM
[38] = target: YES1 (human) (UniProt P07947); test: SelectScreen, TR FRET; conditions: compound 5.0 µM
[39] = tested on: ABL1 (human), P00519 [T315I]; test: SelectScreen, TR FRET; conditions: compound 5.0 µM
[40] = target: PDGFRA (human) (UniProt P16234); test: SelectScreen, TR FRET; conditions: compound 5.0 µM
PDGFRA (human), sequence (P16234 whole entry, looked up): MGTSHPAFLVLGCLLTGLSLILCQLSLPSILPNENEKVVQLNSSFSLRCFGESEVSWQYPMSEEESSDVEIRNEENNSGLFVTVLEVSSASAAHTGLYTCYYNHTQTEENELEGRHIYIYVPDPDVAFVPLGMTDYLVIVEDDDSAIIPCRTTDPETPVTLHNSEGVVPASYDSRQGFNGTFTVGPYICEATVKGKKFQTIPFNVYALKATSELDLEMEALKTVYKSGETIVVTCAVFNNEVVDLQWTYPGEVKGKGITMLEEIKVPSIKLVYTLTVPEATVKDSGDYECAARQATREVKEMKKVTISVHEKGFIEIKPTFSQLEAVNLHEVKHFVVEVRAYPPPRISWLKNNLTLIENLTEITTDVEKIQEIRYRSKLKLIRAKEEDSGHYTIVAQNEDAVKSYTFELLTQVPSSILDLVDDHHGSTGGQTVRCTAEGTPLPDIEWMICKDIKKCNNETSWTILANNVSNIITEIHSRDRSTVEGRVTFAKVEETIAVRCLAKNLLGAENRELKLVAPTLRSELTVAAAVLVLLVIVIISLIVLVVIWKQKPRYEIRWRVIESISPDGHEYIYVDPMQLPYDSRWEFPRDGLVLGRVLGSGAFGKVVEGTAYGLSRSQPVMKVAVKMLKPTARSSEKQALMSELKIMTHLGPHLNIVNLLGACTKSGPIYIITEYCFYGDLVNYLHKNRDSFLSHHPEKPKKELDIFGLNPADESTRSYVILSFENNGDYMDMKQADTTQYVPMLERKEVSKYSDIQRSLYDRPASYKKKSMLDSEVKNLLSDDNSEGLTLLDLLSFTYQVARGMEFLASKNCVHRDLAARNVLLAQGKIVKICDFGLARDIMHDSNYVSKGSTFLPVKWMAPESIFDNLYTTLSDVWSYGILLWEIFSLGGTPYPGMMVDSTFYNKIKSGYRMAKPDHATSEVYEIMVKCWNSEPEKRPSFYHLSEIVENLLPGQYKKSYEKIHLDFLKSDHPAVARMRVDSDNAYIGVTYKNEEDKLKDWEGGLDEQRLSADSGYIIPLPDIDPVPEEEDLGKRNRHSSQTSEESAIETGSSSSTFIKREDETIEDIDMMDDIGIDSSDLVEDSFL

YES1 (human), sequence (P07947 whole entry, looked up): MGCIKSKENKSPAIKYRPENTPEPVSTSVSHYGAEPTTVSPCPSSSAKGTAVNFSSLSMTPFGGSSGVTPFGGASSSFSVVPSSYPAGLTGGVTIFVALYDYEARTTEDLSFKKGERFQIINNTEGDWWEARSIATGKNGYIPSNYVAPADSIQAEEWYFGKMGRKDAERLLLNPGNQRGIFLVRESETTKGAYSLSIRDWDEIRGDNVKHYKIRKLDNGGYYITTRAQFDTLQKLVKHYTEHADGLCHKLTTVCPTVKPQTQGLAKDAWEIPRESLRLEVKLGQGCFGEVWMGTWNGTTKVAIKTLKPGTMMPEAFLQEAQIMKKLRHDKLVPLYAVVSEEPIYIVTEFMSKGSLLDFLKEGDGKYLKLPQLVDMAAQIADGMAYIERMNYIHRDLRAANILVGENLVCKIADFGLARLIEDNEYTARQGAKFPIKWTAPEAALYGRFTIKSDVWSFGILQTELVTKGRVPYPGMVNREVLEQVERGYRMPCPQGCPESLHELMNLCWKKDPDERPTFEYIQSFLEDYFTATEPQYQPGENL
PIP4K2B (human), sequence (P78356 whole entry, looked up): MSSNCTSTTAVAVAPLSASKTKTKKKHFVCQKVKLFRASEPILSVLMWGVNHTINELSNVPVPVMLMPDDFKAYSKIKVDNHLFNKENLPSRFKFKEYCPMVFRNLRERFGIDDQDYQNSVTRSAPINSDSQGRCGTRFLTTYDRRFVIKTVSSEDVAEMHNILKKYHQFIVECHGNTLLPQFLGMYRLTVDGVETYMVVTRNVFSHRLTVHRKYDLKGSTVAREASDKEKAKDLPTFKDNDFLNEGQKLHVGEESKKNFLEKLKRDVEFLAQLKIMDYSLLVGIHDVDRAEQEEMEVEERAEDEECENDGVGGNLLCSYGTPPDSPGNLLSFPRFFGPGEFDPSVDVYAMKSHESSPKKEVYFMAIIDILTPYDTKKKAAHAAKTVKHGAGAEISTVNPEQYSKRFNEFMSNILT
RIOK1 (human), sequence (Q9BRS2 whole entry, looked up): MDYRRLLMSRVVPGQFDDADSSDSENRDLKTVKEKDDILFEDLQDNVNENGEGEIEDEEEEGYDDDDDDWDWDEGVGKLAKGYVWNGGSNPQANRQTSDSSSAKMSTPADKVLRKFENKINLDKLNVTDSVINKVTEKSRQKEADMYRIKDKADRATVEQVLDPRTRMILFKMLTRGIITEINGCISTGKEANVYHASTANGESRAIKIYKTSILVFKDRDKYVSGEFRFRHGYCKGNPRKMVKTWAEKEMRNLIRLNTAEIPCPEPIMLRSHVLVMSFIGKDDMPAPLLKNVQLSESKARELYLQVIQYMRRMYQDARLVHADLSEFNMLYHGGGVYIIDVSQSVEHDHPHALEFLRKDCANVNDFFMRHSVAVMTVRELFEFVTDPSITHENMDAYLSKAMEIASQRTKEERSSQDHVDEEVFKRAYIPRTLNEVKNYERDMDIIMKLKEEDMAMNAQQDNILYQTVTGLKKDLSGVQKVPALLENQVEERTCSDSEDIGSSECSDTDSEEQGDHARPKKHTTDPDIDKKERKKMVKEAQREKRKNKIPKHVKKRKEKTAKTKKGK
NTRK2 (human), sequence (Q16620 whole entry, looked up): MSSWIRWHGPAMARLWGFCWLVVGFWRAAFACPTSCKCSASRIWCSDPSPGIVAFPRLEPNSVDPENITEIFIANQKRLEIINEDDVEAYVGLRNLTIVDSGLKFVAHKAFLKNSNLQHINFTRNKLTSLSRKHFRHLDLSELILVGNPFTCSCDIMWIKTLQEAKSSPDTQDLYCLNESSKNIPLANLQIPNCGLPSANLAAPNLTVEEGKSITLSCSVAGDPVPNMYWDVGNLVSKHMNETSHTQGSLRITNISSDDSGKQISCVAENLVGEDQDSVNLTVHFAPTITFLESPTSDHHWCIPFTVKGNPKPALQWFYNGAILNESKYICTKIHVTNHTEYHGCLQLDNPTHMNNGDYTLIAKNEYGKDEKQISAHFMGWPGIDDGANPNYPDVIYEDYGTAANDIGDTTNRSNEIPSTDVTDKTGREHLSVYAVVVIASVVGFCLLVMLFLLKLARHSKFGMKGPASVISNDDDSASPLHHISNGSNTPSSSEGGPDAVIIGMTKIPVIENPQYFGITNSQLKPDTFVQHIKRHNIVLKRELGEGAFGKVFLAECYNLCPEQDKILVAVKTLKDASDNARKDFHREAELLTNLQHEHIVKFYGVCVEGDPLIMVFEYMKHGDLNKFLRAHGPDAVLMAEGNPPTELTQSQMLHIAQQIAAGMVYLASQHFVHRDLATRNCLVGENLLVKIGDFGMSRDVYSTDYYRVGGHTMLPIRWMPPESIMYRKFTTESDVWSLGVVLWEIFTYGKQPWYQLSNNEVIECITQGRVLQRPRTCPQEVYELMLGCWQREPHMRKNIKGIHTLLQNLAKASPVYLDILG
CSF1R (human), sequence (P07333 whole entry, looked up): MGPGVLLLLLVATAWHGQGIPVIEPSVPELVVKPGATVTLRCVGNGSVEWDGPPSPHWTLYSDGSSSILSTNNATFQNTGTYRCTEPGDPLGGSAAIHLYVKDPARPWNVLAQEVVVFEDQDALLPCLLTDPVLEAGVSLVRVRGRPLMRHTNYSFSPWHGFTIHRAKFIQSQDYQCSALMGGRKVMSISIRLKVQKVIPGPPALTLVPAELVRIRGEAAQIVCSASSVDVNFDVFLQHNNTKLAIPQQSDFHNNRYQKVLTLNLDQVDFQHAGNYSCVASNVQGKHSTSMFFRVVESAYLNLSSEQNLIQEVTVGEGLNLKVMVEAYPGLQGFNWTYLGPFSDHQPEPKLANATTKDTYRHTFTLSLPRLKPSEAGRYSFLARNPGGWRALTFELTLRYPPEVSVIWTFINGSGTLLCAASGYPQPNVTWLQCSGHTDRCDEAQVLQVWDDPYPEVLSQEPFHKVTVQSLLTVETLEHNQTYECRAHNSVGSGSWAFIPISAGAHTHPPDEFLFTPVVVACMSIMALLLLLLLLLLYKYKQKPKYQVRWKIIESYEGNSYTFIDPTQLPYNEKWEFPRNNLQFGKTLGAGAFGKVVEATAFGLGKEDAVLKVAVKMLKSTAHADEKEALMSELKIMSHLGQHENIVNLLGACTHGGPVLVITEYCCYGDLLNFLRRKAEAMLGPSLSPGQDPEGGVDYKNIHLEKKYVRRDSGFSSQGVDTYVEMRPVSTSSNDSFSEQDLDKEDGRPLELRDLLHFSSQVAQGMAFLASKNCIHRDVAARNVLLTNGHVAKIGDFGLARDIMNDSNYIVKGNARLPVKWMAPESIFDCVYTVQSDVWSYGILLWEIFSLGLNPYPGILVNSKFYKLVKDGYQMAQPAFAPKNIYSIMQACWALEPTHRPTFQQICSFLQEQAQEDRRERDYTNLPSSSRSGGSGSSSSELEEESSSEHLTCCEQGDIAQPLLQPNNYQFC
PIM2 (human), sequence (Q9P1W9 whole entry, looked up): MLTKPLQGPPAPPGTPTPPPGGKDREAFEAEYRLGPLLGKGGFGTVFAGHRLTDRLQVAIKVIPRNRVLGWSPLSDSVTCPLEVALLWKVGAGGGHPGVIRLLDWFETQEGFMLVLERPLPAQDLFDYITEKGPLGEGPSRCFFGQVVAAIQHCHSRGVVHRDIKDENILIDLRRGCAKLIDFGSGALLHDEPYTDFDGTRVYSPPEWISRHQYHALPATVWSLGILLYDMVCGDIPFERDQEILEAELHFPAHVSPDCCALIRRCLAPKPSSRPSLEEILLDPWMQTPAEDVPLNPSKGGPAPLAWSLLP
PDGFRA (human), P16234 [T674I], sequence (P16234 whole entry T674I, looked up): as the sequence (P16234 whole entry, looked up) above, with T674I counted along it

pIC50 [1]: 6.24
pIC50 [2]: < 5.00
pIC50 [3]: < 5.00
pIC50 [4]: < 5.00
pIC50 [5]: < 5.00
pIC50 [6]: < 5.00
pIC50 [7]: < 5.00
inhibition of binding [8]: 11%
inhibition of binding [9]: 0%
inhibition of binding [10]: 15%
inhibition of binding [11]: 0%
inhibition of binding [12]: 0%
inhibition of binding [13]: 0%
inhibition of binding [14]: 0%
inhibition of binding [15]: 0%
inhibition of binding [16]: 0%
inhibition of binding [17]: 0%
inhibition of binding [18]: 3%
inhibition of binding [19]: 0%
inhibition of binding [20]: 0%
inhibition of binding [21]: 0%
inhibition of binding [22]: 7%
inhibition of binding [23]: 19%
inhibition of binding [25]: 0%
inhibition of binding [26]: 0%
inhibition of binding [27]: 0%
inhibition of binding [28]: 0%
inhibition of binding [29]: 12%
inhibition of binding [30]: 0%
inhibition [31]: 6%
inhibition [32]: 2%
inhibition [33]: 11%
inhibition [34]: 5%
inhibition [35]: 9%
inhibition [36]: 10%
inhibition [37]: 6%
inhibition [38]: 12%
inhibition [39]: 3%
inhibition [40]: 5%
SMILES: Nc1cc(C(F)(F)F)c(-c2cc(N3CCOCC3)nc(N3CCOCC3)n2)cn1
inhibition of binding [24]: 2%
